Tests used:
[1] = system: Human immunodeficiency virus 1; assay: Antiviral activity against HIV1 LAI infected in human CEM-SS cells assessed as inhibition of viral replication after 5 days by MTT assay; type: functional, organism-based; conditions: Human immunodeficiency virus 1, LAI, 120 h
[2] = Cytotoxicity against human CEM-SS cells after 5 days by MTT assay; type: cell-based
[3] = Therapeutic index, ratio of CC50 for human CEM-SS cells to IC50 for HIV1 LAI infected in human CEM-SS cells; type: cell-based; conditions: CEM-SS cells (uninfected and infected with HIV1 LAI), read-out: Ratio CC50/IC50

Structure (SMILES)	IC50 [1] [µM]	CC50 at 120 h [2] [µM]	selectivity ratio [3]
CCCC(C(=O)NCCc1ccc(OP(=S)(Oc2ccc(CCNC(=O)C(CCC)P(=O)(O)O)cc2)N(C)/N=C/c2ccc(OP3(Oc4ccc(/C=N/N(C)P(=S)(Oc5ccc(CCNC(=O)C(CCC)P(=O)(O)O)cc5)Oc5ccc(CCNC(=O)C(CCC)P(=O)(O)O)cc5)cc4)=NP(Oc4ccc(/C=N/N(C)P(=S)(Oc5ccc(CCNC(=O)C(CCC)P(=O)(O)O)cc5)Oc5ccc(CCNC(=O)C(CCC)P(=O)(O)O)cc5)cc4)(Oc4ccc(/C=N/N(C)P(=S)(Oc5ccc(CCNC(=O)C(CCC)P(=O)(O)O)cc5)Oc5ccc(CCNC(=O)C(CCC)P(=O)(O)O)cc5)cc4)=NP(Oc4ccc(/C=N/N(C)P(=S)(Oc5ccc(CCNC(=O)C(CCC)P(=O)(O)O)cc5)Oc5ccc(CCNC(=O)C(CCC)P(=O)(O)O)cc5)cc4)(Oc4ccc(/C=N/N(C)P(=S)(Oc5ccc(CCNC(=O)C(CCC)P(=O)(O)O)cc5)Oc5ccc(CCNC(=O)C(CCC)P(=O)(O)O)cc5)cc4)=N3)cc2)cc1)P(=O)(O)O (centres undefined)	1.5	> 100	> 67
CCCC(C(=O)NCCc1ccc(OP(=S)(Oc2ccc(CCNC(=O)C(CCC)P(=O)(O)O)cc2)N(C)/N=C/c2ccc(OP3(Oc4ccc(/C=N/N(C)P(=S)(Oc5ccc(CCNC(=O)C(CCC)P(=O)(O)O)cc5)Oc5ccc(CCNC(=O)C(CCC)P(=O)(O)O)cc5)cc4)=NP(Oc4ccc(/C=N/N(C)P(=S)(Oc5ccc(CCNC(=O)C(CCC)P(=O)(O)O)cc5)Oc5ccc(CCNC(=O)C(CCC)P(=O)(O)O)cc5)cc4)(Oc4ccc(/C=N/N(C)P(=S)(Oc5ccc(CCNC(=O)C(CCC)P(=O)(O)O)cc5)Oc5ccc(CCNC(=O)C(CCC)P(=O)(O)O)cc5)cc4)=NP(Oc4ccc(/C=N/N(C)P(=S)(Oc5ccc(CCNC(=O)C(CCC)P(=O)(O)O)cc5)Oc5ccc(CCNC(=O)C(CCC)P(=O)(O)O)cc5)cc4)(Oc4ccc(/C=N/N(C)P(=S)(Oc5ccc(CCNC(=O)C(CCC)P(=O)(O)O)cc5)Oc5ccc(CCNC(=O)C(CCC)P(=O)(O)O)cc5)cc4)=N3)cc2)cc1)P(=O)(O)O.CCCCCCCCCCCCCCCCNOC(CO)C(O)C(OC1OC(CO)C(O)C(O)C1O)C(O)CO.CCCCCCCCCCCCCCCCNOC(CO)C(O)C(OC1OC(CO)C(O)C(O)C1O)C(O)CO.CCCCCCCCCCCCCCCCNOC(CO)C(O)C(OC1OC(CO)C(O)C(O)C1O)C(O)CO.CCCCCCCCCCCCCCCCNOC(CO)C(O)C(OC1OC(CO)C(O)C(O)C1O)C(O)CO.CCCCCCCCCCCCCCCCNOC(CO)C(O)C(OC1OC(CO)C(O)C(O)C1O)C(O)CO.CCCCCCCCCCCCCCCCNOC(CO)C(O)C(OC1OC(CO)C(O)C(O)C1O)C(O)CO (centres undefined)	0.33	1.5	4.5
CCCCCCCCCC(C(=O)NCCc1ccc(OP(=S)(Oc2ccc(CCNC(=O)C(CCCCCCCCC)P(=O)(O)O)cc2)N(C)/N=C/c2ccc(OP3(Oc4ccc(/C=N/N(C)P(=S)(Oc5ccc(CCNC(=O)C(CCCCCCCCC)P(=O)(O)O)cc5)Oc5ccc(CCNC(=O)C(CCCCCCCCC)P(=O)(O)O)cc5)cc4)=NP(Oc4ccc(/C=N/N(C)P(=S)(Oc5ccc(CCNC(=O)C(CCCCCCCCC)P(=O)(O)O)cc5)Oc5ccc(CCNC(=O)C(CCCCCCCCC)P(=O)(O)O)cc5)cc4)(Oc4ccc(/C=N/N(C)P(=S)(Oc5ccc(CCNC(=O)C(CCCCCCCCC)P(=O)(O)O)cc5)Oc5ccc(CCNC(=O)C(CCCCCCCCC)P(=O)(O)O)cc5)cc4)=NP(Oc4ccc(/C=N/N(C)P(=S)(Oc5ccc(CCNC(=O)C(CCCCCCCCC)P(=O)(O)O)cc5)Oc5ccc(CCNC(=O)C(CCCCCCCCC)P(=O)(O)O)cc5)cc4)(Oc4ccc(/C=N/N(C)P(=S)(Oc5ccc(CCNC(=O)C(CCCCCCCCC)P(=O)(O)O)cc5)Oc5ccc(CCNC(=O)C(CCCCCCCCC)P(=O)(O)O)cc5)cc4)=N3)cc2)cc1)P(=O)(O)O.CCCCCCCCCCCCCCCCNOC(CO)C(O)C(OC1OC(CO)C(O)C(O)C1O)C(O)CO.CCCCCCCCCCCCCCCCNOC(CO)C(O)C(OC1OC(CO)C(O)C(O)C1O)C(O)CO.CCCCCCCCCCCCCCCCNOC(CO)C(O)C(OC1OC(CO)C(O)C(O)C1O)C(O)CO.CCCCCCCCCCCCCCCCNOC(CO)C(O)C(OC1OC(CO)C(O)C(O)C1O)C(O)CO.CCCCCCCCCCCCCCCCNOC(CO)C(O)C(OC1OC(CO)C(O)C(O)C1O)C(O)CO.CCCCCCCCCCCCCCCCNOC(CO)C(O)C(OC1OC(CO)C(O)C(O)C1O)C(O)CO (centres undefined)	0.31	6.1	19.7
